Measured values taken from patent US11459338B2, “Heterocyclic compounds as PRMT5 inhibitors” (JUBILANT EPISCRIBE LLC, priority 2018, dated 2022).

How the values were obtained:
[1] = tested on: Z-138 cells; assay: Z-138 long term proliferation assay (Cell Titer Glo); format: cell-based; details: Homo sapiens, 192 h; Z-138 cells, cell viability, day 8; read-out: PRMT5 Z138 GI50 Day 8 μM
Experimental: A compound source plate was prepared by performing ten-point 3-fold dilution in DMSO, such that the final top concentration of the compound was 10 μM, and DMSO was 0.3%. The total volume of compounds added was 20 μL. The cells were incubated for 96 h at 37° C., 5% CO2. […] The cells were re-treated with the compounds and incubated for an additional four days. Cell viability was measured on both day 4 and day 8, by adding 25 μL of Cell Titer Glo reagent to an equal volume of cell suspension. Luminescence was read on a PerkinElmer Victor3 multiplate reader. The concentration of compound inhibiting cell viability by 50% was determined using a 4-parameter, variable slope fit of the normalized dose response curves.

[2] = biological target: T1, PRMT5/MEP50 (Homo sapiens, UniProt O14744); assay: PRMT5/MEP50 enzyme assay on peptide substrates (3H-SAM Flashplate); format: biochemical; details: PRMT5/MEP50 10 nM, H4 1-15aa peptide 100 nM, 3H-SAM 1 μM
T1 construct: Full-length human PRMT5 (NP_006100)
T1 sequence (O14744 whole entry): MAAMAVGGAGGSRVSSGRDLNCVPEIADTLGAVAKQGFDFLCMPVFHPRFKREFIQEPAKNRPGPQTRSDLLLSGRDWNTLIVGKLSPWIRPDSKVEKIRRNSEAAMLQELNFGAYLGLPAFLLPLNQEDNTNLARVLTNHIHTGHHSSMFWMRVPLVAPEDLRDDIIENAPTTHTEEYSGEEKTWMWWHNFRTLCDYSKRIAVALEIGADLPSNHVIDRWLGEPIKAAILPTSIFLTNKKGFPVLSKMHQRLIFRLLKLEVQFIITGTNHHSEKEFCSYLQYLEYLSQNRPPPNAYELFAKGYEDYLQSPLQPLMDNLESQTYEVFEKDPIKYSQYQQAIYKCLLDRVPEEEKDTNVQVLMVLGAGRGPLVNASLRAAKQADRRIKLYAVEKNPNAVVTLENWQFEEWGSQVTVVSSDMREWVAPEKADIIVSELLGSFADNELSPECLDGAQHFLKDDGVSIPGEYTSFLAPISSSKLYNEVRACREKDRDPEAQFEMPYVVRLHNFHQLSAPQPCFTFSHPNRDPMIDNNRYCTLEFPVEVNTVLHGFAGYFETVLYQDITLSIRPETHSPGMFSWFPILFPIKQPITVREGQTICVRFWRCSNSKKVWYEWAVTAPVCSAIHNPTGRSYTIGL
T1 sequence (Q9BQA1 whole entry partner): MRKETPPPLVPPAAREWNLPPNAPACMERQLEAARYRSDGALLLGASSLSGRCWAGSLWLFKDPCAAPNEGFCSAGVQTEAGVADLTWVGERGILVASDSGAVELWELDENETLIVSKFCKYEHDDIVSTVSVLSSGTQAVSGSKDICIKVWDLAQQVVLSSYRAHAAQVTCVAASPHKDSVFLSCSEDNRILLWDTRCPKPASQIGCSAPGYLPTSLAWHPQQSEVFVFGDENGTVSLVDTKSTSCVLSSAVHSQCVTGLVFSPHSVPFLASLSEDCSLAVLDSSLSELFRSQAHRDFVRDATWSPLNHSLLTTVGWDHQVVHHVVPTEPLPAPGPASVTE
Source text: General materials like S-adenocylmethionine (SAM), S-adenosylhomocysteine (SAH), Tris-HCl, DTT, […] (BSA) and Tween-20 were purchased from Sigma-Aldrich. 3H-SAM and 384-well streptavidin Flashplates were purchased from Perkin Elmer. Substrates that were used were Peptide representative of human Histone 4 residues 1-15 which was purchased from Rockland antibodies and assays.
PRMT5/MEP50 Enzyme assay on Peptide Substrates.
The assays were all performed in a buffer consisting of 50 mMTris-HCl, pH 8, 1 mM DTT, 0.01% BSA, 0.01% Tween-20, prepared on the day of use. Test compounds were diluted 3-fold in assay buffer (final DMSO concentration of 1%) and added into a 384-well OptiPlate (PerkinElmer, #6007290). A cocktail (10 μL) of PRMT5/MEP50 enzyme and the peptide was added to the wells. The compounds were allowed to incubate with PRMT5/MEP50 for 30 min at room temperature, then 5 μL of ^3H-SAM was added to initiate the reaction. The final concentrations of the components were as follows: PRMT5/MEP50-10 nM, H4, 1-15aa peptide-100 nM, ^3H-SAM-1 μM. The assays were stopped by the addition of 1 mM SAH. 25 μL of the reaction from the 384-well OptiPlate was then transferred to a 384-well Flashplate and the biotinylated peptides were allowed to bind to the streptavidin surface for at least 1 h, before being washed twice with 50 mMTris-HCl, pH 8, 0.1% Tween-20. The plates were then read in a PerkinElmer Topcount plate reader to measure the quantity of ^3H-labeled peptide bound to the Flashplate surface measured as disintegrations per minute (dpm), also referred to as counts per minute (cpm).
The IC50 values were calculated using a 4-parameter variable slope fit algorithm (cpm—counts per minute, cmpd—signal in assay well, and cpmmax and cpmmin mare the respective minimum and maximum signal controls).

IC50 [2]	SMILES	GI50 [1]
0.01 to 1 µM	Cn1cc(-c2cn3cc(C(=O)NC[C@H](O)CN4CCc5ccccc5C4)nc3cn2)ccc1=O [Example 51, (S)—N-(3-(3,4-dihydroisoquinolin-2(1H)-yl)-2-hydroxypropyl)-6-(1-methyl-6-oxo-1,6-dihydropyridin-3-yl)imidazo[1,2-a]pyrazine-2-carboxamide]	0.01 to 1 µM
0.01 to 1 µM	CC(=O)N1CCC(c2cn3cc(C(=O)NC[C@H](O)CN4CCc5ccccc5C4)nc3cn2)CC1 [Example 52, (S)-6-(1-acetylpiperidin-4-yl)-N-(3-(3,4-dihydroisoquinolin-2(1H)-yl)-2-hydroxypropyl)imidazo[1,2-a]pyrazine-2-carboxamide]	0.01 to 1 µM
0.01 to 1 µM	O=C(NC[C@H](O)CN1CCc2ccccc2C1)c1cn2cc(C(F)(F)F)ncc2n1 [Example 53, (S)—N-(3-(3,4-dihydroisoquinolin-2(1H)-yl)-2-hydroxypropyl)-6-(trifluoromethyl)imidazo[1,2-a]pyrazine-2-carboxamide]	1 to 5 µM
1 to 5 µM	Cc1c(C(=O)NC[C@H](O)CN2CCc3ccccc3C2)nc2ccc(C(F)(F)F)nn12 [Example 54, (S)—N-(3-(3,4-dihydroisoquinolin-2(1H)-yl)-2-hydroxypropyl)-3-methyl-6-(trifluoromethyl)imidazo[1,2-b]pyridazine-2-carboxamide]	1 to 5 µM
1 to 5 µM	Cc1cn2c(C)c(C(=O)NC[C@H](O)CN3CCc4ccccc4C3)nc2cn1 [Example 55, (S)—N-(3-(3,4-dihydroisoquinolin-2(1H)-yl)-2-hydroxypropyl)-3,6-dimethylimidazo[1,2-a]pyrazine-2-carboxamide]	1 to 5 µM
1 to 5 µM	Cc1ccc2nc(C(=O)NC[C@H](O)CN3CCc4ccccc4C3)cn2n1 [Example 56, (S)—N-(3-(3,4-dihydroisoquinolin-2(1H)-yl)-2-hydroxypropyl)-6-methylimidazo[1,2-b]pyridazine-2-carboxamide]	> 5 µM
1 to 5 µM	Cc1cn2cc(C(=O)NC[C@H](O)CN3CCc4ccccc4C3)nc2cn1 [Example 57]	1 to 5 µM
1 to 5 µM	O=C(NC[C@H](O)CN1CCc2ccccc2C1)c1cn2cc(N3CC(F)(F)C3)ncc2n1 [Example 58, (S)-6-(3,3-difluoroazetidin-1-yl)-N-(3-(3,4-dihydroisoquinolin-2(1H)-yl)-2-hydroxypropyl)imidazo[1,2-a]pyrazine-2-carboxamide]	1 to 5 µM
1 to 5 µM	O=C(NC[C@H](O)CN1CCc2ccccc2C1)c1cn2cc(N3CC(F)(F)C3)ccc2n1 [Example 59, (S)-6-(3,3-difluoroazetidin-1-yl)-N-(3-(3,4-dihydroisoquinolin-2(1H)-yl)-2-hydroxypropyl)imidazo[1,2-a]pyridine-2-carboxamide]	1 to 5 µM
1 to 5 µM	O=C(NC[C@H](O)CN1CCc2ccccc2C1)c1cc2nc(C(F)(F)F)ccn2n1 [Example 60, (S)—N-(3-(3,4-dihydroisoquinolin-2(1H)-yl)-2-hydroxypropyl)-5-(trifluoromethyl)pyrazolo[1,5-a]pyrimidine-2-carboxamide]	1 to 5 µM
1 to 5 µM	O=C(NC[C@H](O)CN1CCc2ccccc2C1)c1cn2cc(C3(O)COC3)ccc2n1 [Example 61, (S)—N-(3-(3,4-dihydroisoquinolin-2(1H)-yl)-2-hydroxypropyl)-6-(3-hydroxyoxetan-3-yl)imidazo[1,2-a]pyridine-2-carboxamide]	1 to 5 µM
1 to 5 µM	Cn1cc(-c2ccn3nc(C(=O)NC[C@H](O)CN4CCc5ccccc5C4)cc3n2)cn1 [Example 62, (S)—N-(3-(3,4-dihydroisoquinolin-2(1H)-yl)-2-hydroxypropyl)-5-(1-methyl-1H-pyrazol-4-yl)pyrazolo[1,5-a]pyrimidine-2-carboxamide]	1 to 5 µM
0.01 to 1 µM	Cn1ccc(-c2ccn3nc(C(=O)NC[C@H](O)CN4CCc5ccccc5C4)cc3n2)cc1=O [Example 63, (S)—N-(3-(3,4-dihydroisoquinolin-2(1H)-yl)-2-hydroxypropyl)-5-(1-methyl-2-oxo-1,2-dihydropyridin-4-yl)pyrazolo[1,5-a]pyrimidine-2-carboxamide]	1 to 5 µM
0.01 to 1 µM	Cc1c(C(=O)NC[C@H](O)CN2CCc3ccccc3C2)nc2cnc(-c3cnn(C)c3)cn12 [Example 64, (S)—N-(3-(3,4-dihydroisoquinolin-2(1H)-yl)-2-hydroxypropyl)-3-methyl-6-(1-methyl-1H-pyrazol-4-yl)imidazo[1,2-a]pyrazine-2-carboxamide]	0.01 to 1 µM
0.01 to 1 µM	Cc1c(C(=O)NC[C@H](O)CN2CCc3ccccc3C2)nc2cnc(-c3ccn(C)c(=O)c3)cn12 [Example 65, (S)—N-(3-(3,4-dihydroisoquinolin-2(1H)-yl)-2-hydroxypropyl)-3-methyl-6-(1-methyl-2-oxo-1,2-dihydropyridin-4-yl)imidazo[1,2-a]pyrazine-2-carboxamide]	0.01 to 1 µM
0.01 to 1 µM	Cc1c(C(=O)NC[C@H](O)CN2CCc3ccccc3C2)nc2cnc(-c3ccc(=O)n(C)c3)cn12 [Example 66, (S)—N-(3-(3,4-dihydroisoquinolin-2(1H)-yl)-2-hydroxypropyl)-3-methyl-6-(1-methyl-6-oxo-1,6-dihydropyridin-3-yl)imidazo[1,2-a]pyrazine-2-carboxamide]	0.01 to 1 µM
1 to 5 µM	Cc1ccn2nc(C(=O)NC[C@H](O)CN3CCc4ccccc4C3)c(F)c2n1 [Example 67]	> 5 µM
> 5 µM	O=C(NC[C@H](O)CN1CCc2ccccc2C1)c1nn2ccc(C(F)(F)F)nc2c1F [Example 68, (S)—N-(3-(3,4-dihydroisoquinolin-2(1H)-yl)-2-hydroxypropyl)-3-fluoro-5-(trifluoromethyl)pyrazolo[1,5-a]pyrimidine-2-carboxamide]	> 5 µM
0.01 to 1 µM	O=C(NC[C@H](O)CN1CCc2ccccc2C1)c1cn2cc(N3CCC(F)C3)ccc2n1 (stereo partly drawn) [Example 70, N—((S)-3-(3,4-dihydroisoquinolin-2(1H)-yl)-2-hydroxypropyl)-6-(3-fluoropyrrolidin-1-yl)imidazo[1,2-a]pyridine-2-carboxamide]	1 to 5 µM
0.01 to 1 µM	CN1CCN(c2ccc3nc(C(=O)NC[C@H](O)CN4CCc5ccccc5C4)cn3c2)CC1 [Example 71, (S)—N-(3-(3,4-dihydroisoquinolin-2(1H)-yl)-2-hydroxypropyl)-6-(4-methylpiperazin-1-yl)imidazo[1,2-a]pyridine-2-carboxamide]	1 to 5 µM
0.01 to 1 µM	O=C(NC[C@H](O)CN1CCc2ccccc2C1)c1cn2cc(N3CCOCC3)ccc2n1 [Example 72, (S)—N-(3-(3,4-dihydroisoquinolin-2(1H)-yl)-2-hydroxypropyl)-6-morpholinoimidazo[1,2-a]pyridine-2-carboxamide]	1 to 5 µM
0.01 to 1 µM	N#Cc1ccc(-c2cn3cc(C(=O)NC[C@H](O)CN4CCc5ccccc5C4)nc3cn2)cc1 [Example 74, (S)-6-(4-cyanophenyl)-N-(3-(3,4-dihydroisoquinolin-2(1H)-yl)-2-hydroxypropyl)imidazo[1,2-a]pyrazine-2-carboxamide]	0.01 to 1 µM
0.01 to 1 µM	O=C(NC[C@H](O)[C@@H](O)CN1CCc2ccccc2C1)c1cn2cc(C(F)(F)F)ccc2n1 [Example 76, N-((2S,3S)-4-(3,4-dihydroisoquinolin-2(1H)-yl)-2,3-dihydroxybutyl)-6-(trifluoromethyl)imidazo[1,2-a]pyridine-2-carboxamide]	0.01 to 1 µM
0.01 to 1 µM	O=C(NC[C@@H](O)[C@H](O)CN1CCc2ccccc2C1)c1cn2cc(C(F)(F)F)ccc2n1 [Example 77, N-((2R,3R)-4-(3,4-dihydroisoquinolin-2(1H)-yl)-2,3-dihydroxybutyl)-6-(trifluoromethyl)imidazo[1,2-a]pyridine-2-carboxamide]	0.01 to 1 µM
0.01 to 1 µM	Cc1nc(-c2ccc3nc(C(=O)NC[C@H](O)[C@@H](O)CN4CCc5ccccc5C4)cn3c2)no1 [Example 78, N-((2S,3S)-4-(3,4-dihydroisoquinolin-2(1H)-yl)-2,3-dihydroxybutyl)-6-(5-methyl-1,2,4-oxadiazol-3-yl)imidazo[1,2-a]pyridine-2-carboxamide]	0.01 to 1 µM
